Among the data in patent US20230009626A1 (ICHNOS SCIENCES S.A., priority 2018, published 2023) are inhibition and IC50 values, retold here.

In this assay the target is HPK1 (MAP4K1) (Homo sapiens, UniProt Q92918). The assay is described as follows: FRET Assay for HPK1 (MAP4K1): one step binding assay, displacement of labeled tracer. Conditions: for inhibition at 1 µM: 1 μM compound; for inhibition at 1 µM / inhibition at 10 µM: FRET ratio 665/620, percent of control; for inhibition at 10 µM: 10 μM compound; for pIC50: dose response curve, nonlinear regression. Put shortly: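 Percent inhibition at 1.0 and 10.0 μM and IC50 by nonlinear regression were derived from loss of FRET signal versus control. The signal runs from Eu-anti-GST antibody (4 nM) bound to 10 nM HPK1 kinase to Alexa Fluor 647 Kinase Tracer 222 (20 nM), added after a 15-min on-ice compound pre-incubation. Binding then proceeded 1 h at room temperature in HEPES pH 7.5 buffer with 10 mM MgCl2, 1 mM EGTA, 0.01% Brij-35 and 3% DMSO.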
HPK1 (MAP4K1), sequence (Q92918 whole entry): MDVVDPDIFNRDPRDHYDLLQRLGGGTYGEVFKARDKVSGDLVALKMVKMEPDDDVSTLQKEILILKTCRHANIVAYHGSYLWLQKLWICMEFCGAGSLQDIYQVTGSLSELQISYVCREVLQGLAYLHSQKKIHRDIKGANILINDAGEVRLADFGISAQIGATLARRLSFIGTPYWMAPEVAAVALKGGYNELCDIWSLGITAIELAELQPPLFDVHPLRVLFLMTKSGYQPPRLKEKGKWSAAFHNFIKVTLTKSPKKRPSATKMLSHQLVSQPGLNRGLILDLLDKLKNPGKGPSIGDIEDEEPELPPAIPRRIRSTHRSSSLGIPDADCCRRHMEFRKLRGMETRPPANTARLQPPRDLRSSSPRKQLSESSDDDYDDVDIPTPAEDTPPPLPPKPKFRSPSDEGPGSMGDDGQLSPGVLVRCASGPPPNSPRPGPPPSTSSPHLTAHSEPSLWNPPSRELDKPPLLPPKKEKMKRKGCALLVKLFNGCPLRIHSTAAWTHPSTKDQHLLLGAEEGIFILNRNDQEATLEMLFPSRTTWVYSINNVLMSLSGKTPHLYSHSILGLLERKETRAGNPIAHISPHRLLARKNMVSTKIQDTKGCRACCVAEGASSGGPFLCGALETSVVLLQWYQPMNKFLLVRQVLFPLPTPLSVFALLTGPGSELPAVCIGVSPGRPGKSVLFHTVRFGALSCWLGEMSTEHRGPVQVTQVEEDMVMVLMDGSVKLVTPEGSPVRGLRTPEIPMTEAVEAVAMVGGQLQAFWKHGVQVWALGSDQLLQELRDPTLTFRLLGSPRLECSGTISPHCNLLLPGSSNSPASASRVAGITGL

pIC50: −log10 of the molar value.

What is called inhibition is the change of the read-out against control, counted positive when it falls. The pIC50 is the IC50 on a negative log10 scale, so that one unit is a factor of ten. Turning to `C/C(Nc1ccn(C(C)(C)CO)n1)=C1/C(=O)Nc2cnc(-c3cnccc3C)cc21` [Example 145, (Z)-3-(1-((1-(1-Hydroxy-2-methylpropan-2-yl)-1H-pyrazol-3-yl)amino)ethylidene)-5-(4-methylpyridin-3-yl)-1H-pyrrolo[2,3-c]pyridin-2(3H)-one], the inhibition at 1 µM was found to be 79.4%, the inhibition at 10 µM is 83.9% and the pIC50 is > 7.30.

For `CCS(=O)(=O)n1ccc(N/C(C)=C2\C(=O)Nc3cnc(-c4cnccc4C)cc32)n1` [Example 94, (Z)-3-(1-((1-(Ethylsulfonyl)-1H-pyrazol-3-yl)amino)ethylidene)-5-(4-methylpyridin-3-yl)-1H-pyrrolo[2,3-c]pyridin-2(3H)-one], the inhibition at 1 µM came to 66.8%, the inhibition at 10 µM stood at 75.4% and the pIC50 is > 7.30.

Take `C/C(Nc1cc(C)n(CC(C)C)n1)=C1/C(=O)Nc2cnc(-c3c(C)cccc3F)cc21` [Example 202, (Z)-5-(2-Fluoro-6-methylphenyl)-3-(1-((1-isobutyl-5-methyl-1H-pyrazol-3-yl)amino)ethylidene)-1H-pyrrolo[2,3-c]pyridin-2(3H)-one]: the inhibition at 1 µM was 75.7%, the inhibition at 10 µM stood at 61% and the pIC50 is > 7.30.

On to `C/C(Nc1ccn(C(C)(C)C#N)n1)=C1/C(=O)Nc2cnc(-c3cncc(N)c3C)cc21` [Example 106, (Z)-2-(3-((1-(5-(5-Amino-4-methylpyridin-3-yl)-2-oxo-1H-pyrrolo[2,3-c]pyridin-3(2H)-ylidene)ethyl)amino)-1H-pyrazol-1-yl)-2-methylpropanenitrile], for which the inhibition at 1 µM was found to be 80%, the inhibition at 10 µM amounted to 92.4% and the pIC50 is > 7.30.

Take `C/C(Nc1cnn(C)c1)=C1/C(=O)Nc2cnc(-c3c(F)cccc3OC(F)F)cc21` [Example 35, (Z)-5-(2-(Difluoromethoxy)-6-fluorophenyl)-3-(1-((1-methyl-1H-pyrazol-4-yl)amino)ethylidene)-1H-pyrrolo[2,3-c]pyridin-2(3H)-one]: the inhibition at 1 µM was 88%, the inhibition at 10 µM amounted to 100% and the pIC50 is > 7.30.

As for `C/C(Nc1cc(C)n(C(C)C)n1)=C1/C(=O)Nc2cnc(-c3cnccc3C)cc21` [Example 211, (Z)-3-(1-((1-Isopropyl-5-methyl-1H-pyrazol-3-yl)amino)ethylidene)-5-(4-methylpyridin-3-yl)-1H-pyrrolo[2,3-c]pyridin-2(3H)-one], the inhibition at 1 µM is 76.9%, the inhibition at 10 µM turned out to be 79.4% and the pIC50 was > 7.30.

As for `C/C(Nc1ccn(C)n1)=C1/C(=O)Nc2ccc(-c3cnccc3C)nc21` [Example 63, (Z)-3-(1-((1-Methyl-1H-pyrazol-34yl)amino)ethylidene)-5-(4-methylpyridin-3-yl)-1H-pyrrolo[3,2-b]pyridin-2(3H)-one], the inhibition at 1 µM stood at 89.8%, the inhibition at 10 µM was found to be 97.1% and the negative-log IC50 (pIC50) was > 7.30.

With `C/C(Nc1cc(C)n(CC(F)F)n1)=C1/C(=O)Nc2cnc(-c3c(C)cccc3F)cc21` [Example 201, (Z)-3-(1-((1-(2,2-Difluoroethyl)-5-methyl-1H-pyrazol-3-yl)amino)ethylidene)-5-(2-fluoro-6-methylphenyl)-1H-pyrrolo[2,3-c]pyridin-2(3H)-one], the inhibition at 1 µM was 65.7%, the inhibition at 10 µM was 73.6% and the negative logarithm of the IC50 (pIC50) was > 7.30.

For `COc1cccc(F)c1-c1cc2c(cn1)NC(=O)/C2=C(/C)Nc1ccc(N2CCNCC2)nc1` [Example 125, (Z)-5-(2-Fluoro-6-methoxyphenyl)-3-(1-((6-(piperazin-1-yl)pyridin-3-yl)amino)ethylidene)-1H-pyrrolo[2,3-c]pyridin-2(3H)-one], the inhibition at 1 µM came out at 77.7%, the inhibition at 10 µM was found to be 84.2% and the pIC50 is > 7.30.

For the molecule `C/C(Nc1cnn(C2COC2)c1)=C1/C(=O)Nc2cnc(-c3cnccc3C)cc21` [Example 52, (Z)-5-(4-Methylpyridin-3-yl)-3-(1-((1-(oxetan-3-yl)-1H-pyrazol-4-yl)amino)ethylidene)-1H-pyrrolo[2,3-c]pyridin-2(3H)-one], the inhibition at 1 µM came out at 86.1%, the inhibition at 10 µM amounted to 84.9% and the negative logarithm of the IC50 (pIC50) was > 7.30.

For `C/C(Nc1cc(C)n(C)n1)=C1/C(=O)Nc2ccc(-c3cnccc3C)cc21` [Example 194, (Z)-3-(1-((1,5-Dimethyl-1H-pyrazol-3-yl)amino)ethylidene)-5-(4-methylpyridin-3-yl)indolin-2-one], the inhibition at 1 µM worked out at 68.6%, the inhibition at 10 µM was found to be 66.6% and the pIC50 is > 7.30.

On to `C/C(Nc1ccn([C@@H](C)CO)n1)=C1/C(=O)Nc2cnc(-c3cnccc3C)cc21` [Example 134, (S,Z)-3-(1-((1-(1-Hydroxypropan-2-yl)-1H-pyrazol-3-yl)amino)ethylidene)-5-(4-methylpyridin-3-yl)-1H-pyrrolo[2,3-c]pyridin-2(3H)-one], for which the inhibition at 1 µM amounted to 83.6%, the inhibition at 10 µM was found to be 85.2% and the pIC50 was > 7.30.

`COc1cccc(F)c1-c1cc2c(cn1)NC(=O)/C2=C(/C)Nc1cnn(C2CCOCC2)c1` [Example 44, (Z)-5-(2-Fluoro-6-methoxyphenyl)-3-(1-((1-(tetrahydro-2H-pyran-4-yl)-1H-pyrazol-4-yl)amino)ethylidene)-1H-pyrrolo[2,3-c]pyridin-2(3H)-one]: the inhibition at 1 µM is 91.4%, the inhibition at 10 µM stood at 93.1% and the pIC50 is > 7.30.

With `COc1cccc(F)c1-c1cc2c(cn1)NC(=O)/C2=C(/C)Nc1ccc(N2CCNCC2)cc1` [Example 108, (Z)-5-(2-Fluoro-6-methoxyphenyl)-3-(1-((4-(piperazin-1-yl)phenyl)amino)ethylidene)-1H-pyrrolo[2,3-c]pyridin-2(3H)-one], the inhibition at 1 µM amounted to 74.2%, the inhibition at 10 µM came to 77% and the pIC50 was > 7.30.

Consider `C/C(Nc1ccc(N2CCOCC2)cn1)=C1/C(=O)Nc2cnc(-c3cnccc3C)cc21` [Example 107, (Z)-5-(4-Methylpyridin-3-yl)-3-(1-((5-morpholinopyridin-2-yl)amino)ethylidene)-1H-pyrrolo[2,3-c]pyridin-2(3H)-one], for which the inhibition at 1 µM is 72.3%, the inhibition at 10 µM is 80% and the negative logarithm of the IC50 (pIC50) is > 7.30.

Turning to `C/C(Nc1cc2n(n1)CCOC2)=C1/C(=O)Nc2cnc(-c3cnccc3C)cc21` [Example 146, (Z)-3-(1-((6,7-Dihydro-4H-pyrazolo[5,1-c][1,4]oxazin-2-yl)amino)ethylidene)-5-(4-methylpyridin-3-yl)-1H-pyrrolo[2,3-c]pyridin-2(3H)-one], the inhibition at 1 µM stood at 80.2%, the inhibition at 10 µM was determined as 88.7% and the negative logarithm of the IC50 (pIC50) was > 7.30.

In the case of `C/C(Nc1ccn(CC(=O)N(C)C)n1)=C1/C(=O)Nc2cnc(-c3cnccc3C)cc21` [Example 128, (Z)-N,N-Dimethyl-2-(3-((1-(5-(4-methylpyridin-3-yl)-2-oxo-1H-pyrrolo[2,3-c]pyridin-3(2H)-ylidene)ethyl)amino)-1H-pyrazol-1-yl)acetamide], the inhibition at 1 µM was found to be 79.2%, the inhibition at 10 µM came to 89.8% and the pIC50 is > 7.30.
